Assay results from patent US9284283B2, “Macrocyclic compounds for modulating IL-17” (ENSEMBLE THERAPEUTICS CORPORATION, priority 2012, dated 2016).

target: T1, recombinant human IL17a (binding to its receptor IL17R) (Homo sapiens, UniProt Q16552); assay: IL-17 competition ELISA I (IL17a coated, IL17R/Fc binding)
T1 construct: purchased R&D Systems 317-ILB (IL17a); 177-IR (IL17R/Fc)
T1 sequence (Q16552 20-155 limits assumed): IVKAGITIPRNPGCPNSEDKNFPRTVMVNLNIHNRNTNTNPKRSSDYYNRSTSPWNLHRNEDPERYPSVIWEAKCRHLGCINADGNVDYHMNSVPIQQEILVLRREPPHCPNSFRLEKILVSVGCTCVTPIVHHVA
Outline: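 Plates coated with 20 nM recombinant human IL17a received compound dilutions and 12 nM IL17R/Fc (final) for 30 min at room temperature. Bound receptor was detected with HRP anti-human Fc and TMB, read at 450 nm. IC50 came from a 4-parameter logistic fit between no-competitor and blank controls.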

Row | SMILES | IC50
1 | O=C1CC2(CCCC2)CC(=O)N[C@H](Cc2ccc(NC(=O)[C@H](Cc3ccccc3Cl)NC(=O)Cc3ccccc3)cc2)C(=O)NCCCCCCCCCN1 [Compound 349] | 1000 to 10000 nM
2 | O=C1CC2(CCCC2)CC(=O)N[C@H](Cc2ccc(NC(=O)[C@@H](NC(=O)Cc3ccc(CO)cc3)C3CCCCC3)cc2)C(=O)NCCCCCCCCCN1 [Compound 359] | 1000 to 10000 nM
3 | O=C1CC2(CCCC2)CC(=O)N[C@H](Cc2ccc(NC(=O)[C@@H](NC(=O)Cc3ccc(CO)cc3)C3CCCCC3)cc2)C(=O)NCCCCCCN1 [Compound 355] | 1000 to 10000 nM
4 | CN1CCCCCCCCN(C)C(=O)[C@@H](Cc2ccc(N(C)C(=O)[C@H](Cc3ccccc3Cl)N(C)C(=O)c3ccccc3)cc2)N(C)C(=O)CC2(CCCC2)CC1=O [Compound 372] | 1000 to 10000 nM
5 | O=C1CC2(CCCC2)CC(=O)N[C@H](Cc2ccc(NC(=O)[C@H](Cc3ccccc3Cl)NC(=O)Cc3ccc(CO)cc3)cc2)C(=O)NCCCCCCN1 [Compound 354] | 100 to 1000 nM
6 | O=C1CNC(=O)[C@@H](Cc2ccc(NC(=O)[C@@H](NC(=O)Cc3ccc(F)cc3F)C3CCCCC3)cc2)NC(=O)CC2(CCCC2)CC(=O)NCCCCCN1 [Compound 374] | < 100 nM
7 | O=C1CNC(=O)[C@@H](Cc2ccc(NC(=O)[C@@H](NC(=O)c3ccccc3)C3CCCCC3)cc2)NC(=O)CC2(CCCC2)CC(=O)NCCCCCN1 [Compound 379] | 1000 to 10000 nM
8 | O=C1CNC(=O)[C@@H](Cc2ccc(NC(=O)[C@@H](NC(=O)c3cccnc3)C3CCCCC3)cc2)NC(=O)CC2(CCCC2)CC(=O)N[C@H](C(=O)O)CCCCN1 [Compound 384] | 100 to 1000 nM
9 | O=C1CNC(=O)[C@@H](Cc2ccc(NC(=O)[C@@H](NC(=O)Cc3ccccn3)C3CCCCC3)cc2)NC(=O)CC2(CCCC2)CC(=O)NCCCCCN1 [Compound 381] | 100 to 1000 nM
10 | CN1CCCCCNC(=O)CC2(CCCC2)CC(=O)N[C@H](Cc2ccc(NC(=O)[C@@H](NC(=O)Cc3ccccc3)C3CCCCC3)cc2)C(=O)NCC1=O [Compound 335] | 100 to 1000 nM
11 | O=C1CNC(=O)[C@@H](Cc2ccc(NC(=O)[C@H](Cc3ccccc3Cl)NC(=O)Cc3c(F)cc(F)cc3F)cc2)NC(=O)CC2(CCCC2)CC(=O)NCCCCCN1 [Compound 325] | < 100 nM
12 | O=C1CC2(CCCC2)CC(=O)N[C@H](Cc2ccc(NC(=O)[C@H](Cc3ccccc3Cl)NC(=O)Cc3ccc(CO)cc3)cc2)C(=O)NCCCCCCCN1 [Compound 356] | 100 to 1000 nM
13 | O=C1CNC(=O)[C@@H](Cc2ccc(NC(=O)[C@@H](NC(=O)c3cccc(F)c3)C3CCCCC3)cc2)NC(=O)CC2(CCCC2)CC(=O)NCCCCCN1 [Compound 382] | 100 to 1000 nM
14 | CN1CCCCCNC(=O)CNC(=O)[C@@H](Cc2ccc(NC(=O)[C@H](Cc3ccccc3Cl)NC(=O)Cc3ccccc3)cc2)NC(=O)CC2(CCCC2)CC1=O [Compound 280] | < 100 nM
15 | O=C1CC2(CCCC2)CC(=O)N[C@H](Cc2ccc(NC(=O)[C@H](Cc3ccccc3Cl)NC(=O)Cc3ccccc3)cc2)C(=O)NCCCCCCCN1 [Compound 347] | 100 to 1000 nM
16 | CCCC[C@H](NC(=O)Cc1ccccc1)C(=O)Nc1ccc(C[C@H]2NC(=O)CC3(CCCC3)CC(=O)NCCCCCNC(=O)CNC2=O)cc1 [Compound 312] | 100 to 1000 nM
17 | C[C@H]1NC(=O)[C@@H](Cc2ccc(NC(=O)[C@@H](NC(=O)c3cccnc3)C3CCCCC3)cc2)NC(=O)CC2(CCCC2)CC(=O)N[C@H](C(=O)O)CCCCNC1=O [Compound 370] | 100 to 1000 nM
18 | O=C1CC2(CCCC2)CC(=O)N[C@H](Cc2ccc(NC(=O)[C@@H](NC(=O)Cc3ccccc3)C3CCCCC3)cc2)C(=O)NCCOCCOCCN1 [Compound 333] | 100 to 1000 nM

target: T2, biotinylated human IL-17 (binding to IL17R/Fc) (Homo sapiens, UniProt Q16552); assay: IL-17 competition ELISA II (captured IL17R/Fc, biotinylated IL-17)
T2 construct: purchased R&D Systems 317-ILB (IL-17, biotinylated); 177-IR (IL17R/Fc)
T2 sequence (Q16552 20-155 limits assumed): T1 sequence (Q16552 20-155 limits assumed)
Outline: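 Anti-human IgG-coated plates captured IL17R/Fc (10 nM), then compound (5-fold dilutions from 1 μM) and biotinylated human IL-17 (20 nM stock) were added for 30 min at room temperature in PBST. Bound IL-17 detected by streptavidin-HRP/TMB at 450 nm. IC50 from 4-parameter logistic fit between no-competitor and blank controls.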

Row | SMILES | IC50
19 | O=C1CC2(CCCC2)CC(=O)N[C@H](Cc2ccc(NC(=O)[C@H](Cc3ccccc3Cl)NC(=O)Cc3ccccc3)cc2)C(=O)NCCCCCCCCCN1 [Compound 349] | < 100 nM
20 | O=C1CC2(CCCC2)CC(=O)N[C@H](Cc2ccc(NC(=O)[C@@H](NC(=O)Cc3ccc(CO)cc3)C3CCCCC3)cc2)C(=O)NCCCCCCCCCN1 [Compound 359] | < 100 nM
21 | O=C1CC2(CCCC2)CC(=O)N[C@H](Cc2ccc(NC(=O)[C@@H](NC(=O)Cc3ccc(CO)cc3)C3CCCCC3)cc2)C(=O)NCCCCCCN1 [Compound 355] | < 100 nM
22 | CN1CCCCCCCCN(C)C(=O)[C@@H](Cc2ccc(N(C)C(=O)[C@H](Cc3ccccc3Cl)N(C)C(=O)c3ccccc3)cc2)N(C)C(=O)CC2(CCCC2)CC1=O [Compound 372] | 100 to 1000 nM
23 | O=C1CC2(CCCC2)CC(=O)N[C@H](Cc2ccc(NC(=O)[C@H](Cc3ccccc3Cl)NC(=O)Cc3ccc(CO)cc3)cc2)C(=O)NCCCCCCN1 [Compound 354] | < 100 nM
24 | O=C1CNC(=O)[C@@H](Cc2ccc(NC(=O)[C@@H](NC(=O)Cc3ccc(F)cc3F)C3CCCCC3)cc2)NC(=O)CC2(CCCC2)CC(=O)NCCCCCN1 [Compound 374] | < 100 nM
25 | O=C1CNC(=O)[C@@H](Cc2ccc(NC(=O)[C@@H](NC(=O)c3ccccc3)C3CCCCC3)cc2)NC(=O)CC2(CCCC2)CC(=O)NCCCCCN1 [Compound 379] | < 100 nM
26 | O=C1CNC(=O)[C@@H](Cc2ccc(NC(=O)[C@@H](NC(=O)c3cccnc3)C3CCCCC3)cc2)NC(=O)CC2(CCCC2)CC(=O)N[C@H](C(=O)O)CCCCN1 [Compound 384] | < 100 nM
27 | O=C1CNC(=O)[C@@H](Cc2ccc(NC(=O)[C@@H](NC(=O)Cc3ccccn3)C3CCCCC3)cc2)NC(=O)CC2(CCCC2)CC(=O)NCCCCCN1 [Compound 381] | < 100 nM
28 | CN1CCCCCNC(=O)CC2(CCCC2)CC(=O)N[C@H](Cc2ccc(NC(=O)[C@@H](NC(=O)Cc3ccccc3)C3CCCCC3)cc2)C(=O)NCC1=O [Compound 335] | < 100 nM
29 | O=C1CNC(=O)[C@@H](Cc2ccc(NC(=O)[C@H](Cc3ccccc3Cl)NC(=O)Cc3c(F)cc(F)cc3F)cc2)NC(=O)CC2(CCCC2)CC(=O)NCCCCCN1 [Compound 325] | < 100 nM
30 | O=C1CC2(CCCC2)CC(=O)N[C@H](Cc2ccc(NC(=O)[C@H](Cc3ccccc3Cl)NC(=O)Cc3ccc(CO)cc3)cc2)C(=O)NCCCCCCCN1 [Compound 356] | < 100 nM
31 | O=C1CNC(=O)[C@@H](Cc2ccc(NC(=O)[C@@H](NC(=O)c3cccc(F)c3)C3CCCCC3)cc2)NC(=O)CC2(CCCC2)CC(=O)NCCCCCN1 [Compound 382] | < 100 nM
32 | CN1CCCCCNC(=O)CNC(=O)[C@@H](Cc2ccc(NC(=O)[C@H](Cc3ccccc3Cl)NC(=O)Cc3ccccc3)cc2)NC(=O)CC2(CCCC2)CC1=O [Compound 280] | < 100 nM
33 | O=C1CC2(CCCC2)CC(=O)N[C@H](Cc2ccc(NC(=O)[C@H](Cc3ccccc3Cl)NC(=O)Cc3ccccc3)cc2)C(=O)NCCCCCCCN1 [Compound 347] | < 100 nM
34 | CCCC[C@H](NC(=O)Cc1ccccc1)C(=O)Nc1ccc(C[C@H]2NC(=O)CC3(CCCC3)CC(=O)NCCCCCNC(=O)CNC2=O)cc1 [Compound 312] | < 100 nM
35 | C[C@H]1NC(=O)[C@@H](Cc2ccc(NC(=O)[C@@H](NC(=O)c3cccnc3)C3CCCCC3)cc2)NC(=O)CC2(CCCC2)CC(=O)N[C@H](C(=O)O)CCCCNC1=O [Compound 370] | < 100 nM
36 | O=C1CC2(CCCC2)CC(=O)N[C@H](Cc2ccc(NC(=O)[C@@H](NC(=O)Cc3ccccc3)C3CCCCC3)cc2)C(=O)NCCOCCOCCN1 [Compound 333] | < 100 nM
